From ChEMBL document CHEMBL4420070, “6-6 Fused Bicyclic Heteroaryl Compounds and their Use as LATS Inhibitors” (2018)
Active and inactive are the calls of the source. The calls are words filed in the database; no cut-off is given here.

How the values were obtained:
[1] = target: T1, Serine/threonine-protein kinase LATS (Homo sapiens) (UniProt Q9NRM7+O95835); assay: Inhibition of LATS in human limbal epithelial cells assessed as induction of limbal stem cell expansion marker expression by measuring C/EBPdelta protein expression at 10 uM incubated for 8 to 10 days by immunohistochemistry; format: cell-based
T1 sequence (Q9NRM7 whole entry, looked up, one chain of several): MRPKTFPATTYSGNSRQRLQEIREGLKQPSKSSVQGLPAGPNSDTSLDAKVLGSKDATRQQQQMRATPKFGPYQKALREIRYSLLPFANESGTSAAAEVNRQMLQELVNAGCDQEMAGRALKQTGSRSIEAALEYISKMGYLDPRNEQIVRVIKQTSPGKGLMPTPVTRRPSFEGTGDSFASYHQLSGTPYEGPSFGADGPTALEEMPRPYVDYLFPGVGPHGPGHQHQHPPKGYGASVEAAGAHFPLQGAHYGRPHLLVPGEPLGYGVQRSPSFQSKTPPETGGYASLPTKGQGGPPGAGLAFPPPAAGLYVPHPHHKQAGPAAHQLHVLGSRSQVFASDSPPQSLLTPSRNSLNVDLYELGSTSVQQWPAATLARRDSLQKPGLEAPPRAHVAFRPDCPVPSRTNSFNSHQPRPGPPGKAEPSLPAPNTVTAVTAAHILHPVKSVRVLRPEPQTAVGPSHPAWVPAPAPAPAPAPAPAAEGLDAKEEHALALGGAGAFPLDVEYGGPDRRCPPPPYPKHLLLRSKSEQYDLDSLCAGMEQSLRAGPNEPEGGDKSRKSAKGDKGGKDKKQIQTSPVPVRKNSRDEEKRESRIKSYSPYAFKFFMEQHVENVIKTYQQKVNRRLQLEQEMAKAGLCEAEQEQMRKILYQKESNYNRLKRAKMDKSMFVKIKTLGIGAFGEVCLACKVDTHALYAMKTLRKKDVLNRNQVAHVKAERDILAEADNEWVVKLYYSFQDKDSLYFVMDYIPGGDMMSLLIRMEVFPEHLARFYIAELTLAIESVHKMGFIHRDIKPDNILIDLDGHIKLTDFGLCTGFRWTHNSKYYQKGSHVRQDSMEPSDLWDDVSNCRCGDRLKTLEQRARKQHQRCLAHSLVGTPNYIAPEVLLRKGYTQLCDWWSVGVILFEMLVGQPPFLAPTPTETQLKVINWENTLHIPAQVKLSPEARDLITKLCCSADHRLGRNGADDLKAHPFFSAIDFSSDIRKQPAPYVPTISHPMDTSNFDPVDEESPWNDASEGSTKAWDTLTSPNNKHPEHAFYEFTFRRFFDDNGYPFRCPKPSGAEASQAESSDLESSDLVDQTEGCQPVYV

[2] = target: T1, Serine/threonine-protein kinase LATS (Homo sapiens); assay: Inhibition of LATS in human limbal epithelial cells assessed as reduction in YAP phosphorylation level at 10 uM incubated for 1 hr by Western blot analysis; format: cell-based; settings: Epithelial cell
[3] = target: T1, Serine/threonine-protein kinase LATS (Homo sapiens); assay: Inhibition of LATS in human limbal epithelial cells assessed as induction of limbal stem cell expansion marker expression by measuring ABCG2 protein expression at 10 uM incubated for 8 to 10 days by immunohistochemistry; format: cell-based
[4] = target: T1, Serine/threonine-protein kinase LATS (Homo sapiens); assay: Inhibition of LATS in human limbal epithelial cells assessed as induction of limbal stem cell expansion by measuring p63alpha expression at 10 uM measured after 2 weeks by immunohistochemistry; format: cell-based
[5] = target: T1, Serine/threonine-protein kinase LATS (Homo sapiens); assay: Inhibition of LATS in human limbal epithelial cells assessed as induction of limbal stem cell expansion by measuring expansion factor ratio at 10 uM measured after 2 weeks by p63alpha expression detection based immunohistochemistry relative to control; parameters: scale not given: the % may be the effect or the level left
[6] = target: T1, Serine/threonine-protein kinase LATS (Homo sapiens); assay: Inhibition of LATS in human limbal epithelial cells assessed as increase in YAP level at 10 uM incubated for 24 hrs by immunostaining based assay; settings: Epithelial cell
[7] = target: T1, Serine/threonine-protein kinase LATS (Homo sapiens); assay: Inhibition of LATS in human limbal epithelial cells assessed as induction of limbal stem cell expansion marker expression by measuring deltaN-p63-alphabetagamma protein expression at 10 uM incubated for 8 to 10 days by immunohistochemistry; format: cell-based
Mus musculus [8] = assay: Induction of epidermal thickness in C57BL/6 mouse at 250 ug administered topically twice per day by micrography; format: functional, organism-based
[9] = target: T1, Serine/threonine-protein kinase LATS (Homo sapiens); assay: Inhibition of LATS in human corneal endothelium cells assessed as induction of cell proliferation measured every 3 hrs for 10 days
[10] = target: T1, Serine/threonine-protein kinase LATS (Homo sapiens); assay: Inhibition of LATS in human corneal endothelium cells assessed as reduction in YAP phosphorylation at 10 uM incubated for 1 hr by Western blot analysis
Mus musculus [11] = assay: Inhibition of LATS in C57BL/6 mouse with full-thickness excisional wounds assessed as up-regulation of YAP target gene Cyr61 expression at 0.2 to 2 mg/ml administered topically by RT-PCR analysis; format: functional, organism-based
Mus musculus [12] = assay: Induction of basal skin cell proliferation in C57BL/6 mouse at 250 ug administered topically twice per day by micrography; format: functional, organism-based
[13] = target: T1, Serine/threonine-protein kinase LATS (Homo sapiens); assay: Inhibition of LATS in human corneal endothelium cells assessed as increase in YAP level at 10 uM incubated for 24 hrs by immunohistochemistry
[14] = target: T1, Serine/threonine-protein kinase LATS (Homo sapiens); assay: Inhibition of LATS in human corneal endothelium cells assessed as induction of cell expansion by measuring cell density at 10 uM by Sytox orange dye based epifluorescence microscopy
Mus musculus [15] = assay: Inhibition of LATS in C57BL/6J mouse assessed as change in CTGF mRNA expression level at 10 mg/kg, po administered as single dose measured after 2 hrs by qRT-PCR analysis relative to control; format: functional
[16] = Drug level in post wash cell pellets of human limbal stem cells by LC-MS analysis; format: ADME
[17] = target: T1, Serine/threonine-protein kinase LATS (Homo sapiens); assay: Inhibition of LATS in human limbal epithelial cells assessed as induction of cell differentiation into corneal epithelial cells by measuring keratin-12 expression at 10 uM incubated for 8 to 10 days followed by medium change to DMEM medium without serum and compound for further incubation for 4 to 8 days by confocal microscopy; format: cell-based
[18] = Total drug level in cell pellets of human limbal stem cells by LC-MS analysis; format: ADME
Mus musculus [19] = assay: Inhibition of LATS in C57BL/6J mouse assessed as change in Cyr61 mRNA expression level at 10 mg/kg, po administered as single dose measured after 2 hrs by qRT-PCR analysis relative to control; format: functional
Mus musculus [20] = assay: Inhibition of LATS in C57BL/6J mouse assessed as change in Ki67 protein expression level at 10 mg/kg, po administered as single dose measured after 24 hrs by immunohistochemistry analysis relative to control; format: functional
[21] = target: T2, Serine/threonine-protein kinase LATS1 (Homo sapiens, UniProt O95835); assay: Inhibition of human LATS1 kinase domain (589 to 1130 amino acids) incubated for 30 mins by HTRF assay
T2 sequence (O95835 whole entry): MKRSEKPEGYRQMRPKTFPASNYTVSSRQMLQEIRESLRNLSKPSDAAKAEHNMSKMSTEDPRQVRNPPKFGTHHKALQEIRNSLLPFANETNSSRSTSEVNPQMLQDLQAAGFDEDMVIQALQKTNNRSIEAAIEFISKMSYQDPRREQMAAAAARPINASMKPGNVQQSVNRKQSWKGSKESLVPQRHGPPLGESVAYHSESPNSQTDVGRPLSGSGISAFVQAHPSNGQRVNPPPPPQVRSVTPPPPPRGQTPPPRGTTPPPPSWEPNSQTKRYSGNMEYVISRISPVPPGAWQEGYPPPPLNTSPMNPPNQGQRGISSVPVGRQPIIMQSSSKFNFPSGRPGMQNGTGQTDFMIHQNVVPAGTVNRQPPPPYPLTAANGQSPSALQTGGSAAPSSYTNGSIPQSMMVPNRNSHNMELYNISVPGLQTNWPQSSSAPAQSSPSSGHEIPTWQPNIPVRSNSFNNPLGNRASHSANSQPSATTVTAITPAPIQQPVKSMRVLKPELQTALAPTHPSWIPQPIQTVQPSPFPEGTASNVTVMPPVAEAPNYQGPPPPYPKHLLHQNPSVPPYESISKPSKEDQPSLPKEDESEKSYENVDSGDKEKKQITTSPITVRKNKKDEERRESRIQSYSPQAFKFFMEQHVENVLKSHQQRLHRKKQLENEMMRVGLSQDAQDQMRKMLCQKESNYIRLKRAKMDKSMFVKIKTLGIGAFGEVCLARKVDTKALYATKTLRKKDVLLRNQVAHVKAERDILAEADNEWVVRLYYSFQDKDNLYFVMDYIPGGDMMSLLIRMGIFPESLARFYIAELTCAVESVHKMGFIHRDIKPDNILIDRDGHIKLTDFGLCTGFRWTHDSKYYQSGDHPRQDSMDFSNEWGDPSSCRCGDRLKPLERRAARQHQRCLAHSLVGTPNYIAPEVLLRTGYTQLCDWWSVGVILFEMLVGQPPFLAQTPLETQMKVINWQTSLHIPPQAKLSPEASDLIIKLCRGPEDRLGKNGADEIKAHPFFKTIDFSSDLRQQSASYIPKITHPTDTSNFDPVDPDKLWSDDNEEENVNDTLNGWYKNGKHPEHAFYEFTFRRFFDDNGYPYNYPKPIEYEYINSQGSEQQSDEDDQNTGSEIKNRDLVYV

| Structure (SMILES) | Activity [5] | Activity [14] | further results |
| --- | --- | --- | --- |
| Cc1n[nH]cc1-c1nc(NC2(C)CC2)c2ccncc2n1 | 57 to 97% | 2030 /mm2 | inhibition [1]: Active; inhibition [2]: Active; inhibition [3]: Active; inhibition [4]: Active; inhibition [6]: Active; inhibition [7]: Active; Activity (Mus musculus [8]): Active; inhibition [9]: Active; inhibition [10]: Active; inhibition (Mus musculus [11]): Dose-dependent effect; Activity (Mus musculus [12]): Active; inhibition [13]: Active |
| FC(F)(F)C1(Nc2nc(-c3ccncc3)cc3cnccc23)CC1 | 57 to 97% | 2780 /mm2 |  |
| CC1CCCC1Nc1nc(-c2ccncc2)nc2cnccc12 (centres undefined) | 57 to 97% | 1630 /mm2 |  |
| CC(C)Nc1nc(-c2ccncc2)nc2cnccc12 | 57 to 97% | 3380 /mm2 |  |
| FC(F)(F)C1(Nc2nc(-c3ccncc3)nc3cnccc23)CCC1 | 57 to 97% | 3300 /mm2 |  |
| c1cc(-c2nc(NC3CCCC3)c3ccncc3n2)ccn1 | 57 to 97% | 1700 /mm2 |  |
| FC(F)(F)C1CN(c2nc(-c3ccncc3)nc3cnccc23)CCN1 (centres undefined) | 57 to 97% | 2070 /mm2 |  |
| CCCNc1nc(-c2ccncc2)nc2cnccc12 | 57 to 97% | 3270 /mm2 |  |
| CC(C)(Nc1nc(-c2ccncc2Cl)nc2cnccc12)C(F)(F)F | 57 to 97% | 1180 /mm2 |  |
| CC(C)(C)Nc1cc(-c2ccncc2)nc2cnccc12 | 57 to 97% | 4310 /mm2 | fold change (FC) (Mus musculus [15]): 2.5; Drug uptake [16]: 0.315 to 11 nM; inhibition [17]: Active; Drug uptake [18]: 83 pg; fold change (FC) (Mus musculus [19]): 3.9; fold change (FC) (Mus musculus [20]): 3.1 |
| Cc1n[nH]c(C)c1-c1nc(NC(C)(C)C(F)(F)F)c2ccncc2n1 |  |  | IC50 [21]: 10 nM |
